Patent US6630516B2, “Methods and compositions for preventing and treating chronological aging in human skin” (The Regents of the University of Michigan, priority 1997, dated 2003)
“Also recorded” adds a separate entry of the source.

Columns and labels:
fibroblasts = assay: Ex vivo cell growth from biopsies after 7-day in vivo treatment (fibroblasts); parameters: species or system human; settings: one application of 1% retinol in vivo, occluded seven days, biopsy cells cultured ex vivo; age over 80; p<0.05
Protocol: (§1) That is, an elderly volunteer was treated with retinol (one application of 1% retinol, occluded for seven days), the treated area was biopsied, and the keratinocytes and fibroblasts from the biopsy were cultured ex vivo. […] In particular, keratinocytes growth increased by about 30% (12A) while fibroblast growth increased by about 200% (12B), with p<0.05 for both. Accordingly, the topical application of a retinoid to aged skin would be expected to increase the number of keratinocytes and/or the number of fibroblasts in the skin.
(§2) Ex vivo cell growth. Biopsies were minced into small fragments (approximately 15 fragments per tissue piece) and the tissue fragments transferred to plastic cell culture flasks. Culture medium consisted of Dulbecco's Modified Minimal Essential Medium of Eagle with Earle's salts, non-essential amino acids and 10% fetal bovine serum. Tissue fragments were incubated at 37° C. and 5% CO2/95% air for up to one month. Each fragment was scored for whether keratinocytes and/or fibroblasts grew out of the tissue and from this, the percentage of fragments from which keratinocytes and fibroblasts were isolated was determined according to the method of Varani, J., et al., J Clin. Invest., 96, 1747-1756 (1994).

Type III procollagen = assay: Stained sectioned biopsies of elderly skin: Type III procollagen; format: in vivo, human; settings: seven days after a single application of 1% retinol; 80+ volunteers; stained sections; vs vehicle
From the text: (§3) Additional sectioned and stained biopsies from our oldest (80+) group of volunteers after retinoid treatment are depicted in FIG. 18. As noted above, AP-1 induces MMP formation and is formed by the heterodimerization of c-Jun and c-Fos proteins. […] Thus, our invention appears to inhibit c-Jun formation and thereby inhibit the formation of AP-1 and the resulting MMPs. […] (The apparently lower density of procollagen in the dermis in FIG. 18C is an artifact of the section made; there is clearly a higher level of staining in the retinol treated section than in the vehicle treated section.)
(§4) In another aspect, this invention is directed to improving, or stimulating, the synthesis of Types I and III procollagen in an elderly person's skin. We have found there is a significant reduction in Types I and III procollagen synthesis in sun-protected skin of many (at least 50% of) aged individuals and that this condition can be treated by the topical application of a retinoid. Procollagen is a protein synthesized by skin fibroblast cells and then secreted into the extracellular medium, where it is converted by naturally occurring enzymes into collagen. Reduced procollagen synthesis in an elderly person's skin is manifest as a reduced presence of procollagen protein in both the upper dermis (extracellular) and in fibroblasts throughout the dermis, and can be determined (e.g.) by immunohistochemistry.

procollagen protein = assay: Procollagen protein levels in chronologically-aged skin after treatment; format: in vivo, human; settings: single application of 1% retinol to chronologically-aged skin, covered with air-permeable adhesive bandage, examined seven days later
From the text: as §4
It has been found unexpectedly that topical treatment of elderly, chronoaged skin with a retinoid results in a restitution of intracellular procollagen protein levels similar to those observed in young individuals (such as those aged 40 and younger). […] It would be more preferable for elderly persons to apply the retinoid once or twice daily to maintain a therapeutic regimen, although the agent could be applied on a less frequent but preferably regular basis (e.g., every other day, or once weekly). […]

[1] = tested on: sun-protected skin of subjects at least 80 years old; assay: Histology and morphometry of elderly skin biopsied seven days after one topical treatment; format: in vivo, human
From the text: To investigate the treatment of chronologically-aged skin, 17 subjects having an age of at least 80 years old were given one topical treatment with 1% retinol or with vehicle alone, the test area was occluded for seven days, and the test area was then biopsied. The vehicle was composed of a mixture of ethanol and polyethylene glycol in a 70:30 volumetric ratio. In comparing vehicle-treated skin with untreated skin from individuals of the same elderly age range, there were no statistically significant differences in any of the parameters described with reference to FIG. 2, namely the number of fibroblasts and keratinocytes, the epidermal thickness, and undesirable dermal connective tissue features. […] Due to the short duration of the retinoid (retinol) treatment, little change in the number of detrimental dermal connective tissue features (11B) was apparent.
Histology and morphometry. Replicate 4-mm punch biopsies were obtained from buttock skin of each individual. Formalin-fixed tissue pieces were sectioned, stained with hematoxylin and eosin, randomized and blinded. The sections were examined using an Olympus BX40 microscope in conjunction with a Sony DCX-151 high-resolution camera. Blocked areas 200 μm on a side were isolated using NIH Imager software and epidermal height was assessed at four sites (25 μm apart) in each of two such areas. The same two blocked areas were used for epithelial cell counts. The number of interstitial cell nuclei (i.e., nuclei below the dermo-epidermal juncture, not associated with capillaries) over the entire histological section was determined as a measure of dermal cellularity. The same blinded sections were scored for connective tissue fiber spacing, thickness, degree of disorganization and depth of disorganization, using a scale of 1-9 for each parameter.

MMP-2 = assay: Gelatin zymography in biopsies of treated elderly skin (MMP-2); format: in vivo, human; settings: seven days after a single retinol treatment, vs vehicle only
From the text: (§5) We also used the biopsies from the aforementioned volunteers to determine the effect of the same retinoid treatment on the relative activity of the same collagenase enzymes studied for the results shown in FIG. 4. FIGS. 14A, 14B, and 14C depict the average MMP activity levels (for collagenase MMP-1 and gelatinases MMP-9 and MMP-2, respectively) after treatment of elderly individuals with retinol. […] (In FIGS. 14A-14C, the number of subjects for each figure was 10; “*” indicates […] versus the 18-29 year old values, “**” indicates p<0.1, and “***” indicates p<0.001.)
(§6) Gelatin zymography (Varani et al., op. cit.) was used to assess MMP-2 (72-kD gelatinase; gelatinase A) and MMP9 (92-kD gelatinase; gelatinase B) activity. Tissue extracts were electrophoresed in an 8.5% SDS-polyacrylamide gel containing 1 mg/ml of gelatin. After electrophoresis, the SDS was removed by three sequential washes in 1% Triton X-100. The first two washes were for 20 minutes each and the last was overnight. Quantitation of hydrolysis zone width was done by laser densitometry.

MMP-1 = assay: Matrix metalloproteinase assay (collagenolytic activity) in biopsies of treated elderly skin; format: in vivo, human; settings: seven days after a single retinol treatment, vs vehicle only, p<0.001
From the text: as §5
Matrix metalloproteinase assays. Tissue pieces were frozen in liquid nitrogen immediately after biopsy, homogenized in 20 mM Tris HCl (pH 7.6) plus 5 mM CaCl2, and centrifuged at 3000×g for 10 minutes to remove particulates. Ability to release soluble radioactive fragments from 3H-labeled fibrillar Type I collagen (described by Fisher, G. J., et al., Nature, 379, 335-339 (1996) and Hu, C-L, et al., Analytic. Biochem, 88, 638-643 (1978)) was used as a measure of collagenolytic activity. […] Subsequently, 0.2 μCi of collagen substrate (NEN-DuPont, Boston, Mass.) was incubated for 24 hours with 50 μl of tissue extract. […] Radioactivity remaining in the supernatant fluid was then measured and from this, the percentage of substrate hydrolzyed was determined.

ERK = ERK activity assay in biopsies of treated elderly skin; format: in vivo, human; settings: 1% retinol applied to sun-protected skin, occluded, examined seven days later; three 80+ year old volunteers; control normalized to one
From the text: Using the same technique as previously described for retinoid treatment (1% retinol applied to sun-protected skin, occluded, and examined seven days later), we treated and then tested three of our 80+ year old volunteers to determine the effect of retinoid treatment on ERK activity. […] ERK phosphorylation and activity assays. ERK1 and ERK2 in skin supernatants were immunoprecipitated with antibodies from Santa Cruz Biotechnology Inc. and assayed for enzymatic activity using myelin basic protein as substrate, as described by J. D. Weber et al. (“Sustained activation of extracellular-signal regulated kinase I (ERK1) is required for the continued expression of cyclin D1 in G1 phase,” Biochem. J., 326:61-68 (1997)). Total and phosphorylated ERK1 and ERK2 in supernatants were determined by Western analysis, using antibodies from New England Biolabs Inc. (Beverly, Mass.)

MMP-9 = assay: Gelatin zymography in biopsies of treated elderly skin (MMP-9); format: in vivo, human; settings: seven days after a single retinol treatment, vs vehicle only, p<0.001
From the text: as §5, §6

Type I procollagen = assay: Stained sectioned biopsies of elderly skin: Type I procollagen; format: in vivo, human; settings: seven days after a single application of 1% retinol; 80+ volunteers; stained sections; vs vehicle
From the text: as §3, §4

c-Jun protein = assay: Stained sectioned biopsies of elderly skin: c-Jun protein; format: in vivo, human; settings: seven days after a single application of 1% retinol; 80+ volunteers; stained sections
From the text: As noted above, AP-1 induces MMP formation and is formed by the heterodimerization of c-Jun and c-Fos proteins.

keratinocytes = assay: Ex vivo cell growth from biopsies after 7-day in vivo treatment (keratinocytes); parameters: species or system human; settings: one application of 1% retinol in vivo, occluded seven days, biopsy cells cultured ex vivo; age over 80; p<0.05
Protocol: as §1, §2

[2] = tested on: Type III procollagen α1(III) mRNA; assay: In vivo induction of Type III procollagen mRNA in elderly skin; parameters: species or system human; settings: 1% retinol cream applied once to sun-protected skin, covered with a patch seven days; seven 80+ year old individuals
Protocol: Seven 80+ year old individuals were treated clinically with 1% retinol cream, applied once to sun-protected skin, covered with a patch, and left undisturbed for seven days.
Northern analysis of RNA. Total RNA (e.g., for c-Jun, procollagen α1(III)) was isolated from skin samples by guanidinium hydrochloride lysis and ultracentrifugation (as described by G. J. Fisher et al., “Cellular, immunologic and biochemical characterization of topical retinoic acid-treated human skin,” J Investig. Dermatol, 96:699-707 (1991)). Northern analysis of total RNA (40 μg/lane) with randomly primed ^32P labelled cDNA probes for the particular mRNA to be determined were performed as described by G. J. Fisher et al. (in “All trains retinoic acid induces cellular retinol-binding protein in human skin in vivo,” J Investig. Dermatol, 105:80-86 (1995)). Type III procollagen mRNA was determined using […].

[3] = 1% retinol, one topical application, occluded seven days, vs vehicle-treated skin, age 80+
[4] = one application of retinol, 7 days, sun-protected skin of an individual, vs vehicle-treated skin

`CC1=C(/C=C/C(C)=C/C=C/C(C)=C/CO)C(C)(C)CCC1` [retinol] was tested, and the “increase in ex vivo fibroblast growth” value (fibroblasts) was “about 200%”, the “level of Type III procollagen in skin” value (Type III procollagen) was “increased; also recorded: enhanced” and the procollagen protein levels (procollagen protein) was “comparable to those found in sun-protected skin of significantly younger individuals”. The “mean increase in number of keratinocytes per section” value ([1]; 1% retinol, one topical application, occluded seven days, vs vehicle-treated skin of same individuals, age 80+, p<0.001) was 273%, the “mean increase in number of fibroblasts per section” value ([1]; 1% retinol, one topical application, occluded seven days, vs vehicle-treated skin of same individuals, age 80+, p<0.05) was 30% and the epidermal thickness [1, 3] was “increased the epidermal thickness substantially; also recorded: thickened”. For the same molecule, the “number of detrimental dermal connective tissue features” value [1, 3] was “little change”, the “appearance of dermal collagen” value [1, 4] was “denser and more regular” and the “interfacial surface area between epidermis and dermis (rete pegs and dermal papillae)” value [1, 4] was “increased”. For the same molecule, the “change in the activity of MMP-2” value (MMP-2) was “no significant change”, the “decrease in MMP-1 activity” value (MMP-1) was 48% and the “ERK activity in vivo compared with vehicle-treated area” value (ERK) was “more than doubled”. The “decrease in MMP-9 activity” value (MMP-9) was 39%, the “level of Type I procollagen in skin” value (Type I procollagen) was “increased; also recorded: enhanced” and the “c-Jun level in elderly skin compared with vehicle-treated skin” value (c-Jun protein) was “decreased; also recorded: significantly reduced (almost absent)”. For the same molecule, the “increase in ex vivo keratinocytes growth” value (keratinocytes) was “about 30%” and the “increase in Type III procollagen mRNA from control (vehicle-treated) areas” value [2] was “about 2.5 times”.
